From patent US9221834B2 (Merck Sharp & Dohme Corp., priority 2010, dated 2015)

Each compound was assayed against T1, recombinant CETP (rCETP) (Homo sapiens, UniProt P11597) (assay: RTA assay using recombinant CETP (2% RTA)). Conditions: RTA assay in 2% human serum; read-out: IC50.
T1 sequence (P11597 18-493): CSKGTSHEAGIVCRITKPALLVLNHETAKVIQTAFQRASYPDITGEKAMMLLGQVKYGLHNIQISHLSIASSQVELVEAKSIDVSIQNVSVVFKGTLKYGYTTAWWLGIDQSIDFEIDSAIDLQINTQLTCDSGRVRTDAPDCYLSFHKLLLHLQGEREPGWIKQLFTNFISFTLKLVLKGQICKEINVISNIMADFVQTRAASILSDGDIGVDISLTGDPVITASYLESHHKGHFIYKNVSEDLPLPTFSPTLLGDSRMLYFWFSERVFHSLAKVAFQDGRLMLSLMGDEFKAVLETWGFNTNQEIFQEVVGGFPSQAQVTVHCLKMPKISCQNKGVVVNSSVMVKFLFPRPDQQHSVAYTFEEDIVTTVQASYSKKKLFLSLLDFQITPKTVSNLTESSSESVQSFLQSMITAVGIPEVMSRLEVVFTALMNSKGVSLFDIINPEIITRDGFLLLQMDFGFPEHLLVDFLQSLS
Format: biochemical
Procedure: In Vitro Radioactive Assays of CETP-Catalyzed CE and TG Transfer (RTA Assay)
Reagents and sources are: [3H] cholesteryl oleate (GE #TRK.886), [3H]
Both assays measure the transfer of [3H] cholesteryl oleate or [3H]triolein from exogenous LDL to HDL.
After a brief vortex, the solution is sonicated until clear and mixed with 20 mL of fresh human serum. The mixture is incubated overnight at 37° C. […] Once isolated the particles are dialyzed 3× in CETP buffer (50 mM Tris, pH 7.4, 100 mM NaCl, 1 mM EDTA). Human HDL is purchased from Intracel and used as the acceptor particles.
Transfer assays are performed in a 96-well v-bottom polypropylene plate. […] 1 μL of each test compound diluted in DMSO is added to 47 μL of assay cocktail per well and incubated at 37° C. for 1 hour. To initiate the transfer reaction, 2 μL radiolabeled LDL is added. After an additional 60 min of incubation at 37° C., the transfer action is terminated by precipitation of LDL with an equal volume of 20% W/V PEG 8000. The plates are centrifuged at 2000 rpm for 30 minutes at 4° C. A 40 μL aliquot of the HDL-containing supernatant is transferred to a Packard Optiplate with 200 μL of MicroScint 20. After mixing, plates are counted by liquid scintillation. Counts present in the supernatant for blanks (wells containing only HDL acceptor, CETP buffer and DMSO) are subtracted from those containing test compounds and used to correct for non-specific transfer.
Comparison of the counts of samples with inhibitors to an uninhibited (DMSO only) positive control yield a percent inhibition. A plot of percent inhibition vs. log of inhibitor concentration, fit to a Sigmoidal 4 parameter equation is used to calculate IC50.

Row | Compound | IC50 [nM]
1 | COC(=O)[C@@H]1CC[C@@H](c2ccc(OC)c(-c3c(C)cc(N4CCC4)nc3CN3C(=O)O[C@H](c4cc(C(F)(F)F)cc(C(F)(F)F)c4)[C@@H]3C)c2)C1 (mixture of isomers) [Example 216] | 9
2 | COc1ccc(C2CCC(O)C2)cc1-c1ccc(N2CCC2)nc1CN1C(=O)O[C@H](c2cc(C(F)(F)F)cc(C(F)(F)F)c2)[C@@H]1C (mixture of isomers) [Example 262] | 3
3 | COc1ccc(C2CCC(O)C2)cc1-c1ccc(N2CCC2)nc1CN1C(=O)O[C@H](c2cc(C(F)(F)F)cc(C(F)(F)F)c2)[C@@H]1C (mixture of isomers) [Example 263] | 5
4 | COC(=O)[C@@H]1CC[C@@H](c2ccc(OC)c(-c3ccc(N4CCC4)nc3CN3C(=O)O[C@H](c4cc(C(F)(F)F)cc(C(F)(F)F)c4)[C@@H]3C)c2)C1 (racemic) [Example 214] | 8
5 | COC(=O)CCc1ccc(OC)c(-c2c(C)cc(N3CCC3)nc2CN2C(=O)O[C@H](c3cc(C(F)(F)F)cc(C(F)(F)F)c3)[C@@H]2C)c1 (single isomer, unassigned) [Example 39] | 3
6 | COc1ccc([C@H]2C[C@@H](C(=O)OC)C2)cc1-c1c(C)cc(N2CCC2)nc1CN1C(=O)O[C@H](c2cc(C(F)(F)F)cc(C(F)(F)F)c2)[C@@H]1C (single isomer, unassigned) [Example 41] | 4
7 | COc1ccc([C@H]2C[C@@H](C(=O)OC)C2)cc1-c1c(C)cc(N2CCC2)nc1CN1C(=O)O[C@H](c2cc(C(F)(F)F)cc(C(F)(F)F)c2)[C@@H]1C (single isomer, unassigned) [Example 42] | 102
8 | COC(=O)[C@H]1CC[C@@H](c2ccc(OC)c(-c3ccc(N4CCC4)nc3CN3C(=O)O[C@H](c4cc(C(F)(F)F)cc(C(F)(F)F)c4)[C@@H]3C)c2)C1 (single isomer, unassigned) [Example 217] | 19
9 | COC(=O)[C@H]1CC[C@@H](c2ccc(OC)c(-c3ccc(N4CCC4)nc3CN3C(=O)O[C@H](c4cc(C(F)(F)F)cc(C(F)(F)F)c4)[C@@H]3C)c2)C1 (single isomer, unassigned) [Example 218] | 12
10 | COc1ccc([C@@H]2CC[C@@H](C(=O)O)C2)cc1-c1ccc(N2CCC2)nc1CN1C(=O)O[C@H](c2cc(C(F)(F)F)cc(C(F)(F)F)c2)[C@@H]1C (single isomer, unassigned) [Example 238] | 5
11 | COc1ccc([C@@H]2CC[C@@H](C(=O)O)C2)cc1-c1ccc(N2CCC2)nc1CN1C(=O)O[C@H](c2cc(C(F)(F)F)cc(C(F)(F)F)c2)[C@@H]1C (single isomer, unassigned) [Example 239] | 7
12 | COc1ccc([C@@H]2CC[C@H](C(=O)O)C2)cc1-c1ccc(N2CCC2)nc1CN1C(=O)O[C@H](c2cc(C(F)(F)F)cc(C(F)(F)F)c2)[C@@H]1C (single isomer, unassigned) [Example 245] | 9
13 | COc1ccc([C@@H]2CC[C@H](C(=O)O)C2)cc1-c1ccc(N2CCC2)nc1CN1C(=O)O[C@H](c2cc(C(F)(F)F)cc(C(F)(F)F)c2)[C@@H]1C (single isomer, unassigned) [Example 246] | 12
14 | COC(=O)CCc1ccc(OC)c(-c2ccc(N3CCC3)nc2CN2C(=O)O[C@H](c3cc(C(F)(F)F)cc(C(F)(F)F)c3)[C@@H]2C)c1 [Example 1, Methyl 3-{3-[6-azetidin-1-yl-2-({(4S,5R)-5-[3,5-bis(trifluoromethyl)phenyl]-4-methyl-2-oxo-1,3-oxazolidin-3-yl}methy)pyridin-3-yl]-4-methoxyphenyl}propanoate] | 8
15 | COC(=O)CCc1ccc(OC)c(-c2ccc(N3CCCC3)nc2CN2C(=O)O[C@H](c3cc(C(F)(F)F)cc(C(F)(F)F)c3)[C@@H]2C)c1 [Example 2] | 33
16 | CCOC(=O)[C@@H]1C[C@H]1c1ccc(OC)c(-c2ccc(N3CCC3)nc2CN2C(=O)O[C@H](c3cc(C(F)(F)F)cc(C(F)(F)F)c3)[C@@H]2C)c1 [Example 3] | 6
17 | CCOC(=O)[C@H]1C[C@@H]1c1ccc(OC)c(-c2ccc(N3CCC3)nc2CN2C(=O)O[C@H](c3cc(C(F)(F)F)cc(C(F)(F)F)c3)[C@@H]2C)c1 [Example 4] | 6
18 | COC(=O)CCc1ccc(Cl)c(-c2ccc(N3CCC3)nc2CN2C(=O)O[C@H](c3cc(C(F)(F)F)cc(C(F)(F)F)c3)[C@@H]2C)c1 [Example 5] | 7
19 | CCOC(=O)CC1CCc2cc(OC)c(-c3ccc(N4CCC4)nc3CN3C(=O)O[C@H](c4cc(C(F)(F)F)cc(C(F)(F)F)c4)[C@@H]3C)cc21 (stereo partly drawn) [Example 6] | 7
20 | COC(=O)CC(C)(C)c1ccc(OC)c(-c2ccc(N3CCC3)nc2CN2C(=O)O[C@H](c3cc(C(F)(F)F)cc(C(F)(F)F)c3)[C@@H]2C)c1 [Example 7] | 12

Row | Compound | IC50 [nM]
21 | COC(=O)Cc1ccc(OC)c(-c2ccc(N3CCC3)nc2CN2C(=O)O[C@H](c3cc(C(F)(F)F)cc(C(F)(F)F)c3)[C@@H]2C)c1 [Example 8] | 12
22 | COc1ccc([C@H]2CC[C@H](C(=O)OC)CC2)cc1-c1ccc(N2CCC2)nc1CN1C(=O)O[C@H](c2cc(C(F)(F)F)cc(C(F)(F)F)c2)[C@@H]1C [Example 9] | 15
23 | COc1ccc(CC(C)(C)C(=O)OC(C)(C)C)cc1-c1ccc(N2CCC2)nc1CN1C(=O)O[C@H](c2cc(C(F)(F)F)cc(C(F)(F)F)c2)[C@@H]1C [Example 10] | 63
24 | COC(=O)CCc1ccc(OC)c(-c2ccc(N3CCC3)nc2CN2C(=O)O[C@H](c3ccc(F)c(F)c3)[C@@H]2C)c1 [Example 11] | 186
25 | COC(=O)CC(C)(C)c1ccc(OC)c(-c2ccc(N3CCC3)nc2CN2C(=O)O[C@H](c3ccc(F)c(F)c3)[C@@H]2C)c1 [Example 12] | 227
26 | CCOC(=O)[C@@H]1C[C@H]1c1ccc(OC)c(-c2ccc(N3CCC3)nc2CN2C(=O)O[C@H](c3ccc(F)c(F)c3)[C@@H]2C)c1 [Example 13] | 498
27 | COC(=O)CCc1ccc(OC)c(-c2ccc(N3CCC3)nc2CN2C(=O)O[C@H](c3cc(F)cc(F)c3)[C@@H]2C)c1 [Example 14] | 87
28 | COC(=O)CC(C)(C)c1ccc(OC)c(-c2ccc(N3CCC3)nc2CN2C(=O)O[C@H](c3cc(F)cc(F)c3)[C@@H]2C)c1 [Example 15] | 159
29 | CCOC(=O)[C@@H]1C[C@H]1c1ccc(OC)c(-c2ccc(N3CCC3)nc2CN2C(=O)O[C@H](c3cc(F)cc(F)c3)[C@@H]2C)c1 [Example 16] | 94
30 | CCOC(=O)[C@H]1C[C@@H]1c1ccc(OC)c(-c2ccc(N3CCC3)nc2CN2C(=O)O[C@H](c3cc(F)cc(F)c3)[C@@H]2C)c1 [Example 17] | 181
31 | CCOC(=O)[C@@H]1C[C@@H]1c1ccc(OC)c(-c2ccc(N3CCC3)nc2CN2C(=O)O[C@H](c3cc(F)cc(F)c3)[C@@H]2C)c1 [Example 18] | 62
32 | COc1ccc([C@H]2CC[C@H](C(=O)OC)CC2)cc1-c1ccc(N2CCC2)nc1CN1C(=O)O[C@H](c2cc(F)cc(F)c2)[C@@H]1C [Example 19] | 381
33 | CCOC(=O)C[C@@H]1CCc2cc(OC)c(-c3ccc(N4CCC4)nc3CN3C(=O)O[C@H](c4cc(F)cc(F)c4)[C@@H]3C)cc21 [Example 20] | 96
34 | COC(=O)c1ccc(-c2cc(-c3ccc(N4CCC4)nc3CN3C(=O)O[C@H](c4cc(F)cc(F)c4)[C@@H]3C)c(OC)cc2F)c(C)c1 [Example 21] | 22
35 | CCOC(=O)[C@@H]1C[C@H]1c1ccc(CC)c(-c2ccc(N3CCC3)nc2CN2C(=O)O[C@H](c3cc(C(F)(F)F)cc(C(F)(F)F)c3)[C@@H]2C)c1 [Example 22] | 11
36 | COc1ccc([C@H]2C[C@@H](C(=O)OC)C2)cc1-c1ccc(N2CCC2)nc1CN1C(=O)O[C@H](c2cc(C(F)(F)F)cc(C(F)(F)F)c2)[C@@H]1C [Example 23] | 18
37 | COc1ccc([C@H]2C[C@H](C(=O)OC)C2)cc1-c1ccc(N2CCC2)nc1CN1C(=O)O[C@H](c2cc(C(F)(F)F)cc(C(F)(F)F)c2)[C@@H]1C [Example 24] | 2
38 | COC(=O)C[C@H]1C[C@@H](c2ccc(OC)c(-c3ccc(N4CCC4)nc3CN3C(=O)O[C@H](c4cc(C(F)(F)F)cc(C(F)(F)F)c4)[C@@H]3C)c2)C1 [Example 25] | 14
39 | COC(=O)C[C@H]1C[C@H](c2ccc(OC)c(-c3ccc(N4CCC4)nc3CN3C(=O)O[C@H](c4cc(C(F)(F)F)cc(C(F)(F)F)c4)[C@@H]3C)c2)C1 [Example 26] | 7
